Test results as given in patent US12115157B2, “3-phenoxyazetidin-1-yl-heteroaryl pyrrolidine derivatives and the use thereof as medicament” (Boehringer Ingelheim International GmbH, priority 2021, dated 2024).

What was measured:
hERG channel = hERG channel (Homo sapiens (Human), UniProt Q12809); assay: hERG channel assay (whole-cell patch clamp); assay type: cell-based; settings: HEK293 cells stably transfected with hERG cDNA
Source text: hERG Channel inhibition of compounds of the present invention was investigated as follows:
HEK (human embryonic kidney) 293 cells were stably transfected with hERG cDNA. Cells determined for use in patch clamp experiments were cultivated without antibiotic.
Cells were superfused with a bath solution containing (mM): NaCl (137), KCl (4.0), MgCl2 (1.0), CaCl2(1.8), Glucose (10), HEPES (10), pH 7.4 with NaOH. Patch pipettes were made from borosilicate glass tubing using a pipette and filled with pipette solution containing (mM): K-aspartate (130), MgCl2(5.0), EGTA (5.0), K2ATP (4.0), HEPES (10.0), pH 7.2 with KOH. Resistance of the microelectrodes was typically in the range between 2 MΩ and 5 MΩ.
Membrane currents were recorded using an EPC-10 patch clamp amplifier (HEKA Electronics, Lambrecht, FRG) and PatchMaster software (HEKA). hERG-mediated membrane currents were recorded at typically 28° C., using the whole-cell configuration of the patch-clamp technique. Transfected HEK293 cells were clamped at a holding potential of −60 mV and hERG-mediated inactivating tail currents were elicited using a pulse pattern with fixed amplitudes (activation/inactivation: 40 mV for 2000 ms; recovery: 120 mV for 2 ms; ramp to 40 mV in 2 ms; inactivating tail current: 40 mV for 50 ms) repeated at 15 s intervals. During each inter-pulse interval 4 pulses scaled down by a factor of 0.2 were recorded for a P/n leak subtraction procedure. Rs compensation was employed up to a level that safely allows recording devoid of ringing. The remaining uncompensated Rs was recorded as well as actual temperature and holding current.
The concentrations of the test item were applied sequentially on each of the different cells investigated. A steady state level of baseline current was measured for at least 5 sweeps prior to the application of the first test article concentration. The test item was dissolved in DMSO to yield a stock solution of 1000-fold the highest final concentration. This stock was diluted further in DMSO to stock solutions of 1000-fold the remaining final concentrations. Final dilutions in extracellular buffer were prepared freshly from these stocks by a 1:1000 dilution step each before starting the experiments.
Peak current amplitudes were measured 3 ms after the ramp to +40 mV. For baseline and each concentration, the peak currents of the three last sweeps before application of the next concentration were averaged. Residual currents (I/I0) were calculated for each cell as the fraction of actual average peak current and average baseline peak current. Current inhibition was expressed as […]. Current inhibition for all cells was reported as mean ±SD. If possible, from mean current inhibition data the IC50 was estimated based on the Hill equation using a least squares procedure.

human plasma proteins = assay: Human plasma protein binding assay (equilibrium dialysis); assay type: in vitro ADME; settings: 1 μM, 2 hours, 37° C.
Protocol: Equilibrium dialysis (ED) technique was used to determine the approximate in vitro fractional binding of test compounds to plasma proteins. Dianorm Teflon dialysis cells (micro 0.2) were used. Each dialysis cell consists of a donor and an acceptor chamber, separated by an ultrathin semipermeable membrane with a 5 kDa molecular weight cut-off. Stock solutions for each test compound were prepared in DMSO at 1 mM and serially diluted to obtain a final test concentration of 1 μM. The subsequent dialysis solutions were prepared in plasma (supplemented with NaEDTA as anticoagulant), and aliquots of 200 μL test compound dialysis solution in plasma were dispensed into the donor (plasma) chambers. Aliquots of 200 μL dialysis buffer (100 mM potassium phosphate, pH 7.4) were dispensed into the buffer (acceptor) chamber. Incubation was carried out for 2 hours under rotation at 37° C. for establishing equilibrium.
At the end of the dialysis period, aliquots obtained from donor and acceptor chambers, respectively, were transferred into reaction tubes, spiked with Internal Standard solution and processed for HPLC-MS/MS analysis. Analyte concentrations were quantified in aliquots of samples by HPLC-MS/MS against external calibration curves.
Percent bound was calculated using the formula: % bound=(plasma concentration−buffer concentration/plasma concentration)×100

[1] = test system: primary human hepatocytes; assay: In vitro metabolite profiling in primary human hepatocytes with or without proadifen; assay type: in vitro ADME; settings: for % Parent of drug-related material: incubations in primary human hepatocytes, 1 μM test compound; for Contribution of amide hydrolysis to metabolism (incl. secondary metabolites): primary human hepatocytes, abundance of deacetylated metabolites relative to all metabolites
Protocol: In vitro metabolite profiling to evaluate the involvement of non-CYP-enzyme-mediated metabolic pathways such as hydrolysis in addition to CYP-mediated pathways is based on the semiquantitative analysis of the formation of prototypic metabolites in incubations with liver microsomes (with and without beta-nicotinamide adenine dinucleotide phosphate, NADPH), primary human hepatocytes (with and without the pan-CYP inhibitor proadifen) and recombinant CYP enzymes.
An additional measure to identify CYP-independent metabolic pathways is the use of the pan-CYP inhibitor proadifen in incubations of the test compound with human hepatocytes. In presence of proadifen, the CYP-related pathways are inhibited and metabolites would primarily be generated via non-CYP pathways.
The involvement of non-CYP-enzymes in metabolic transformations of the test compound was further investigated using primary human hepatocytes in suspension in presence or absence of the pan-CYP inhibitor proadifen (50 μM final incubation concentration). After recovery from cryopreservation, human hepatocytes were incubated in Dulbecco's modified eagle medium supplemented with 3.5 μg glucagon/500 ml, 2.5 mg insulin/500 ml and 3.75 mg/500 ml hydrocortisone containing 5% (v/v) human serum.
Following a 30 min preincubation in a cell culture incubator (37° C., 10% CO2) with or without 50 μM proadifen, test compound solution was spiked into the hepatocyte suspension to obtain a final cell density of 1.0*10^6 to 4.0*10^6 cells/ml (depending on the metabolic turnover rate of the compound observed with primary human hepatocytes), a final test compound concentration of 1 μM, and a final DMSO concentration of 0.05% (v/v).
The cells were incubated for six hours (incubator, horizontal shaker) and samples were removed from the incubation after 0, 0.5, 1, 2, 4 or 6 hours, depending on the metabolic turnover rate. Samples were quenched with acetonitrile and pelleted by centrifugation. The supernatant was transferred to a 96-deepwell plate, evaporated under nitrogen, and resuspended prior to bioanalysis by liquid chromatography-high resolution mass spectrometry for identification of putative metabolites.
The contribution of hydrolysis was calculated based on the abundance of the respective deacetylated metabolite(s) of the compounds of the present invention relative to all metabolites observed in incubations with human hepatocytes.

human hepatocytes = assay: Metabolic stability in human hepatocytes; assay type: in vitro ADME; settings: human hepatocyte suspension, 1 μM; predicted hepatic clearance as percentage of hepatic blood flow
Protocol: The metabolic degradation of a test compound was assayed in a human hepatocyte suspension. After recovery from cryopreservation, human hepatocytes were diluted in Dulbecco's modified eagle medium (supplemented with 3.5 μg glucagon/500 mL, 2.5 mg insulin/500 mL, 3.75 mg hydrocortisone/500 mL, 5% human serum) to obtain a final cell density of 1.0×10^6 cells/mL or 4.0×10^6 cells/mL, depending on the metabolic turnover rate of the test compound.
Following a 30 minutes preincubation in a cell culture incubator (37° C., 10% CO2), test compound solution was spiked into the hepatocyte suspension, resulting in a final test compound concentration of 1 μM and a final DMSO concentration of 0.05% (v/v).
The cell suspension was incubated at 37° C. (cell culture incubator, horizontal shaker) and samples were removed from the incubation after 0, 0.5, 1, 2, 4 and 6 hours. Samples were quenched with acetonitrile (containing internal standard) and pelleted by centrifugation. The supernatant was transferred to a 96-deepwell plate, and prepared for analysis of decline of parent compound by HPLC-MS/MS.
The percentage of remaining test compound was calculated using the peak area ratio (test compound/internal standard) of each incubation time point relative to the time point 0 peak area ratio. The log-transformed data were plotted versus incubation time, and the absolute value of the slope obtained by linear regression analysis was used to estimate in vitro half-life (T1/2).
In vitro intrinsic clearance (CLint) was calculated from in vitro T1/2 and scaled to whole liver using a hepatocellularity of 120×10^6 cells/g liver, a human liver per body weight of 25.7 g liver/kg as well as in vitro incubation parameters, applying the following equation: CL_[…]_IN VIVO[mL/min/kg]=(CL_[…][μL/min/10^6 cells]×hepatocellularity[10^6 cells/g liver]×liver factor[g/kg body weight])/1000
Hepatic in vivo blood clearance (CL) was predicted according to the well-stirred liver model considering an average liver blood flow (QH) of 20.7 mL/min/kg: CL[mL/min/kg]=CL_[…]_IN VIVO[mL/min/kg]×hepatic blood flow[mL/min/kg]/(CL_[…]_IN VIVO[mL/min/kg]+hepatic blood flow[mL/min/kg])
Results were expressed as percentage of hepatic blood flow: QH[%]=CL[mL/min/kg]/hepatic blood flow[mL/min/kg])

Sequence of hERG channel (Q12809 whole entry): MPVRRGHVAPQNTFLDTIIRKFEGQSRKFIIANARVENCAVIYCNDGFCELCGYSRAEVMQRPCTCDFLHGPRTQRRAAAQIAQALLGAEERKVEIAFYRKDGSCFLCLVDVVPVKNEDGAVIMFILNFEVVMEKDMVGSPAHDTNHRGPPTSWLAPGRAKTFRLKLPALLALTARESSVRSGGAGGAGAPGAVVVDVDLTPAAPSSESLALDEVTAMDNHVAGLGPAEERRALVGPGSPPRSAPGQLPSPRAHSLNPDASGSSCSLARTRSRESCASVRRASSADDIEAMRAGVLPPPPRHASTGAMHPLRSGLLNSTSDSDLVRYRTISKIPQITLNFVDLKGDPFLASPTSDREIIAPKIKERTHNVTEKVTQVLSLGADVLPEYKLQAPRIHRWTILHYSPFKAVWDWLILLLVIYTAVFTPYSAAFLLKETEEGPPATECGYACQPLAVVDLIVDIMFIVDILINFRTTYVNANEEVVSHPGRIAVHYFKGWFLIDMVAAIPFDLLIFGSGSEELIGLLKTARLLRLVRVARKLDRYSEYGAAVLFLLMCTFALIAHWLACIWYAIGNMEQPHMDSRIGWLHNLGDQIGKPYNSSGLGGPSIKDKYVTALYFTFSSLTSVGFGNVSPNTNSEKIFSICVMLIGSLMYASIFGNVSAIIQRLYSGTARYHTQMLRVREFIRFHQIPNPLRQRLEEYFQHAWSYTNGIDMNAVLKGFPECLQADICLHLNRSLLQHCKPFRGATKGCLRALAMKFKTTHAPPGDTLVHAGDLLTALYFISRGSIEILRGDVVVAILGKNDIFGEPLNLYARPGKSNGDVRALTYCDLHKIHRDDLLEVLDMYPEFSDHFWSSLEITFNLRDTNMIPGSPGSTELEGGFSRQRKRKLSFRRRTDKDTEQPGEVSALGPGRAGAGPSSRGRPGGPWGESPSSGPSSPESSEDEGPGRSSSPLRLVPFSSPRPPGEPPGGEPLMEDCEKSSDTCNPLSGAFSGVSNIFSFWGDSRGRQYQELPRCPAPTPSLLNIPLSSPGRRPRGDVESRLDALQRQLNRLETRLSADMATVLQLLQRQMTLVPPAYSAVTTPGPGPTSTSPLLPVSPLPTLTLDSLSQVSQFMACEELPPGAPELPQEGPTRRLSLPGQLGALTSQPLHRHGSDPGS

Hu PPB (human plasma proteins) | % Parent of drug-related material [1] | Contribution of amide hydrolysis to metabolism (incl. secondary metabolites) [1] | Human HepStab (human hepatocytes) | SMILES | IC50 (hERG channel)
79.7 % bound | 84% | 19% | 9.2 % QH | CC(=O)N1C[C@H](NC(=O)c2nccnc2N2CC(Oc3ccc(F)c(F)c3)C2)C(F)(F)C1 [Example 8b] | > 10 µM
92.8 % bound | 70% | 25% | <4.1 % QH | CC(=O)N1C[C@H](NC(=O)c2nsnc2N2CC(Oc3ccc(F)c(F)c3)C2)C(F)(F)C1 [Example 13b] | > 10 µM
